Assay results taken from PubChem BioAssay AID2060486 (Molecular Pharmacology Branch, DTP, NCI, 2025).

System: IGROV1 complex spheroids (HUVEC, MSC), viability % test/control
Assay: Anticancer human tumor IGROV1 cell line growth inhibition [GQUAD];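 also: spheroids exposed to compounds for 7 days before readout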;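 as to viability, T/C: 100% = DMSO vehicle control viability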
Settings: for IC50: curve of first compound; for viability, T/C: stronger effect = lower value
Procedure, shortened: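 Tumor cells were grown as complex spheroids with HUVEC endothelial cells and mesenchymal stem cells as stroma. G-quadruplex stabilizers were combined with targeted agents over half-log dilutions from near the clinical Cmax, or from 10 microM.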

[1] = second compound 0.0316 µM, first compound 0.0316 µM
[2] = second compound 0.0316 µM, first compound 0.1 µM
[3] = second compound 0.0316 µM, first compound 0.316 µM
[4] = second compound 0.0316 µM, first compound 1 µM
[5] = second compound 0.0316 µM, first compound 3.16 µM
[6] = second compound 0.0316 µM, first compound 10 µM
[7] = second compound 0.1 µM, first compound 0.0316 µM
[8] = second compound 0.1 µM, first compound 0.1 µM
[9] = second compound 0.1 µM, first compound 0.316 µM
[10] = second compound 0.1 µM, first compound 1 µM
[11] = second compound 0.1 µM, first compound 3.16 µM
[12] = second compound 0.1 µM, first compound 10 µM
[13] = second compound 0.316 µM, first compound 0.0316 µM
[14] = second compound 0.316 µM, first compound 0.1 µM
[15] = second compound 0.316 µM, first compound 0.316 µM
[16] = second compound 0.316 µM, first compound 1 µM
[17] = second compound 0.316 µM, first compound 3.16 µM
[18] = second compound 0.316 µM, first compound 10 µM
[19] = second compound 1 µM, first compound 0.0316 µM
[20] = second compound 1 µM, first compound 0.1 µM
[21] = second compound 1 µM, first compound 0.316 µM
[22] = second compound 1 µM, first compound 1 µM
[23] = second compound 1 µM, first compound 3.16 µM
[24] = second compound 1 µM, first compound 10 µM
[25] = second compound 3.16 µM, first compound 0.0316 µM
[26] = second compound 3.16 µM, first compound 0.1 µM
[27] = second compound 3.16 µM, first compound 0.316 µM
[28] = second compound 3.16 µM, first compound 1 µM
[29] = second compound 3.16 µM, first compound 3.16 µM
[30] = second compound 3.16 µM, first compound 10 µM
[31] = second compound 10 µM, first compound 0.0316 µM
[32] = second compound 10 µM, first compound 0.1 µM
[33] = second compound 10 µM, first compound 0.316 µM
[34] = second compound 10 µM, first compound 1 µM
[35] = second compound 10 µM, first compound 3.16 µM
[36] = second compound 10 µM, first compound 10 µM

Compound COc1cccc2c1C(=O)c1c(O)c3c(c(O)c1C2=O)CC(O)(C(=O)CO)CC3OC1CC(N)C(O)C(C)O1 (stereo unspecified) + CN(C)c1ccc(Nc2c3ccc(NC(=O)CCN4CCCC4)cc3nc3cc(NC(=O)CCN4CCCC4)ccc23)cc1 has an IC50 (second compound 0.0316 µM) of 49.4 nM, an IC50 (second compound 0.1 µM) of 49 nM and an IC50 (second compound 0.316 µM) of 39.9 nM. For the same compound, the IC50 (second compound 1 µM) was 32.4 nM, the IC50 (second compound 3.16 µM) was 41.3 nM and the IC50 (second compound 10 µM) was < 31.6 nM. For the same compound, the viability, T/C [1] was 67.7%, the viability, T/C [2] was 21.5% and the viability, T/C [3] was 9.86%. The viability, T/C [4] was 3.36%, the viability, T/C [5] was 0.13% and the viability, T/C [6] was 1.04%. For the same compound, the viability, T/C [7] was 67.9%, the viability, T/C [8] was 20.4% and the viability, T/C [9] was 9.01%. The viability, T/C [10] was 3.31%, the viability, T/C [11] was 0.07% and the viability, T/C [12] was 1.06%. For the same compound, the viability, T/C [13] was 57.2%, the viability, T/C [14] was 21.7% and the viability, T/C [15] was 9.64%. It also gave a viability, T/C [16] of 3.48%, a viability, T/C [17] of 0.07% and a viability, T/C [18] of 1.01%. For the same compound, the viability, T/C [19] was 50.5%, the viability, T/C [20] was 25.7% and the viability, T/C [21] was 7.36%. The viability, T/C [22] was 2.77%, the viability, T/C [23] was 0.08% and the viability, T/C [24] was 0.98%. It also gave a viability, T/C [25] of 59.6%, a viability, T/C [26] of 18.7% and a viability, T/C [27] of 8.4%. It also gave a viability, T/C [28] of 3.44%, a viability, T/C [29] of 0.13% and a viability, T/C [30] of 0.94%. For the same compound, the viability, T/C [31] was 33.5%, the viability, T/C [32] was 15.6% and the viability, T/C [33] was 5.82%. It also gave a viability, T/C [34] of 3.29%, a viability, T/C [35] of 0.17% and a viability, T/C [36] of 1.15%.

For CC[C@@]1(O)C(=O)OCc2c1cc1n(c2=O)Cc2cc3c(CN(C)C)c(O)ccc3nc2-1 + Cc1cnc(CNC(=O)c2c(=O)c3ccc(N4CCCN(C)CC4)nc3n3c2sc2ccccc23)cn1, the IC50 (second compound 0.0316 µM) was 13.3 nM, the IC50 (second compound 0.1 µM) was < 0.999 nM and the IC50 (second compound 0.316 µM) was < 0.999 nM. The IC50 (second compound 1 µM) was < 0.999 nM, the IC50 (second compound 3.16 µM) was < 0.999 nM and the IC50 (second compound 10 µM) was < 0.999 nM. The viability, T/C (second compound 0.0316 µM, first compound 0.000999 µM) was 69.8%, the viability, T/C (second compound 0.0316 µM, first compound 0.00316 µM) was 57.8% and the viability, T/C (second compound 0.0316 µM, first compound 0.00999 µM) was 60.4%. It also gave a viability, T/C [1] of 19.8%, a viability, T/C (second compound 0.0316 µM, first compound 0.0999 µM) of 12.4% and a viability, T/C [3] of 8.43%. For the same compound, the viability, T/C (second compound 0.1 µM, first compound 0.000999 µM) was 33%, the viability, T/C (second compound 0.1 µM, first compound 0.00316 µM) was 34.3% and the viability, T/C (second compound 0.1 µM, first compound 0.00999 µM) was 31.3%. For the same compound, the viability, T/C [7] was 15.8%, the viability, T/C (second compound 0.1 µM, first compound 0.0999 µM) was 12% and the viability, T/C [9] was 9.62%. It also gave a viability, T/C (second compound 0.316 µM, first compound 0.000999 µM) of 24.3%, a viability, T/C (second compound 0.316 µM, first compound 0.00316 µM) of 29.3% and a viability, T/C (second compound 0.316 µM, first compound 0.00999 µM) of 18%. The viability, T/C [13] was 12.4%, the viability, T/C (second compound 0.316 µM, first compound 0.0999 µM) was 11.9% and the viability, T/C [15] was 8.87%. For the same compound, the viability, T/C (second compound 1 µM, first compound 0.000999 µM) was 21.8%, the viability, T/C (second compound 1 µM, first compound 0.00316 µM) was 18.1% and the viability, T/C (second compound 1 µM, first compound 0.00999 µM) was 12.3%. The viability, T/C [19] was 11.1%, the viability, T/C (second compound 1 µM, first compound 0.0999 µM) was 13.1% and the viability, T/C [21] was 9.29%. For the same compound, the viability, T/C (second compound 3.16 µM, first compound 0.000999 µM) was 10.1%, the viability, T/C (second compound 3.16 µM, first compound 0.00316 µM) was 8.55% and the viability, T/C (second compound 3.16 µM, first compound 0.00999 µM) was 9.85%. The viability, T/C [25] was 8.98%, the viability, T/C (second compound 3.16 µM, first compound 0.0999 µM) was 10.3% and the viability, T/C [27] was 8.29%. For the same compound, the viability, T/C (second compound 10 µM, first compound 0.000999 µM) was 11.6%, the viability, T/C (second compound 10 µM, first compound 0.00316 µM) was 9.45% and the viability, T/C (second compound 10 µM, first compound 0.00999 µM) was 11.2%. For the same compound, the viability, T/C [31] was 8.53%, the viability, T/C (second compound 10 µM, first compound 0.0999 µM) was 10% and the viability, T/C [33] was 9.32%.

COc1cc(C2c3cc4c(cc3C(OC3OC5COC(C)OC5C(O)C3O)C3COC(=O)C23)OCO4)cc(OC)c1O (stereo unspecified) + CN(C)c1ccc(Nc2c3ccc(NC(=O)CCN4CCCC4)cc3nc3cc(NC(=O)CCN4CCCC4)ccc23)cc1 showed an IC50 (second compound 0.0316 µM) of 138 nM, an IC50 (second compound 0.1 µM) of 109 nM and an IC50 (second compound 0.316 µM) of 93.5 nM. For the same compound, the IC50 (second compound 1 µM) was 84.1 nM, the IC50 (second compound 3.16 µM) was 98.5 nM and the IC50 (second compound 10 µM) was < 31.6 nM. For the same compound, the viability, T/C [1] was 88.3%, the viability, T/C [2] was 59.8% and the viability, T/C [3] was 25.1%. For the same compound, the viability, T/C [4] was 13.8%, the viability, T/C [5] was 9.71% and the viability, T/C [6] was 6.8%. For the same compound, the viability, T/C [7] was 90.7%, the viability, T/C [8] was 51.9% and the viability, T/C [9] was 24.9%. The viability, T/C [10] was 11.9%, the viability, T/C [11] was 9.44% and the viability, T/C [12] was 6.65%. For the same compound, the viability, T/C [13] was 88%, the viability, T/C [14] was 47.6% and the viability, T/C [15] was 23.2%. It also gave a viability, T/C [16] of 11.3%, a viability, T/C [17] of 9.49% and a viability, T/C [18] of 5.93%. It also gave a viability, T/C [19] of 83.4%, a viability, T/C [20] of 44.5% and a viability, T/C [21] of 18.1%. For the same compound, the viability, T/C [22] was 12.9%, the viability, T/C [23] was 9.59% and the viability, T/C [24] was 5.75%. For the same compound, the viability, T/C [25] was 85.2%, the viability, T/C [26] was 49.4% and the viability, T/C [27] was 24.6%. It also gave a viability, T/C [28] of 11%, a viability, T/C [29] of 9.22% and a viability, T/C [30] of 5.74%. It also gave a viability, T/C [31] of 50.3%, a viability, T/C [32] of 22.1% and a viability, T/C [33] of 13.1%. It also gave a viability, T/C [34] of 7.21%, a viability, T/C [35] of 6.58% and a viability, T/C [36] of 4.87%.
